Reference: ChEMBL document CHEMBL5058647, “Data for DCP probe JNJ-9350” (2022)

Legend:
[1] = target: 5-hydroxytryptamine receptor 1A (Homo sapiens) (UniProt P08908); settings: Compound concentration 10.0 uM
[2] = target: T1, Sodium-dependent dopamine transporter (Homo sapiens, UniProt Q01959); test: GPCRScan assay: inhibition of DAT; design: radioligand conc. used [nm] 3.6 – 16.0, parental cells stable HEK
[3] = target: Peroxisomal N(1)-acetyl-spermine/spermidine oxidase (Homo sapiens, UniProt Q6QHF9); test: HyPerBlu POAX enzymatic assay
[4] = target: Sigma intracellular receptor 2 (Homo sapiens, UniProt Q5BJF2); settings: Compound concentration 10.0 uM
[5] = target: Beta-1 adrenergic receptor (Homo sapiens) (UniProt P08588); settings: Compound concentration 10.0 uM
[6] = target: Alpha-2C adrenergic receptor (Homo sapiens) (UniProt P18825); settings: Compound concentration 10.0 uM
[7] = target: 5-hydroxytryptamine receptor 6 (Homo sapiens) (UniProt P50406); settings: Compound concentration 10.0 uM
[8] = target: Beta-2 adrenergic receptor (Homo sapiens) (UniProt P07550); settings: Compound concentration 10.0 uM
[9] = target: Mu-type opioid receptor (Homo sapiens) (UniProt P35372); settings: Compound concentration 10.0 uM
[10] = target: GABA-A receptor; anion channel (Rattus norvegicus) (UniProt O09028+P15431+P18506+P18508+P19969+P20236+P23574+P23576+P28471+P28473+P30191+P62813+P63079+P63138+Q91ZM7+Q9ES14); settings: Compound concentration 10.0 uM
[11] = target: Alpha-1D adrenergic receptor (Homo sapiens) (UniProt P25100); settings: Compound concentration 10.0 uM
Spermine oxidase = Spermine oxidase (Homo sapiens, UniProt Q9NWM0); test: HyPerBlu SMOX enzymatic assay
[12] = target: D(2) dopamine receptor (Homo sapiens) (UniProt P14416); settings: Compound concentration 10.0 uM
[13] = target: 5-hydroxytryptamine receptor 1D (Homo sapiens, UniProt P28221); settings: Compound concentration 10.0 uM
[14] = target: Histamine H2 receptor (Homo sapiens) (UniProt P25021); settings: Compound concentration 10.0 uM
[15] = target: Histamine H4 receptor (Homo sapiens) (UniProt Q9H3N8); settings: Compound concentration 10.0 uM
[16] = target: Alpha-2B adrenergic receptor (Homo sapiens) (UniProt P18089); settings: Compound concentration 10.0 uM
[17] = target: T1, Sodium-dependent dopamine transporter; settings: Compound concentration 10.0 uM
[18] = target: 5-hydroxytryptamine receptor 2C (Homo sapiens) (UniProt P28335); settings: Compound concentration 10.0 uM
[19] = target: Delta-type opioid receptor (Homo sapiens) (UniProt P41143); settings: Compound concentration 10.0 uM
[20] = target: Muscarinic acetylcholine receptor M4 (Homo sapiens, UniProt P08173); test: GPCRScan assay: inhibition of M4; design: radioligand conc. used [nm] 0.3 – 1.0, parental cells stable CHO
D(3) dopamine receptor [21] = target: T2, D(3) dopamine receptor (Homo sapiens, UniProt P35462); test: GPCRScan assay: inhibition of D3; design: radioligand conc. used [nm] 0.5 – 1.8, parental cells HEKT
[22] = target: 5-hydroxytryptamine receptor 3A (Homo sapiens) (UniProt P46098); settings: Compound concentration 10.0 uM
[23] = target: 5-hydroxytryptamine receptor 2A (Homo sapiens) (UniProt P28223); settings: Compound concentration 10.0 uM
[24] = target: 5-hydroxytryptamine receptor 7 (Homo sapiens) (UniProt P34969); settings: Compound concentration 10.0 uM
[25] = target: T3, Kappa-type opioid receptor (Homo sapiens, UniProt P41145); settings: Compound concentration 10.0 uM
[26] = target: T3, Kappa-type opioid receptor; test: GPCRScan assay: inhibition of KOR; design: radioligand conc. used [nm] 0.6 – 1.2, parental cells stable HEK
[27] = target: Beta-3 adrenergic receptor (Homo sapiens) (UniProt P13945); settings: Compound concentration 10.0 uM
D(3) dopamine receptor [28] = target: T2, D(3) dopamine receptor; settings: Compound concentration 10.0 uM
[29] = target: 5-hydroxytryptamine receptor 2B (Homo sapiens, UniProt P41595); settings: Compound concentration 10.0 uM
[30] = target: D(1B) dopamine receptor (Homo sapiens) (UniProt P21918); settings: Compound concentration 10.0 uM
[31] = target: 5-hydroxytryptamine receptor 1B (Homo sapiens, UniProt P28222); settings: Compound concentration 10.0 uM
[32] = target: D(4) dopamine receptor (Homo sapiens) (UniProt P21917); settings: Compound concentration 10.0 uM
[33] = GPCRScan assay: inhibition of GABA/PBR; design: species or system Rattus norvegicus; radioligand conc. used [nm] 0.3 – 2.0, parental cells brain tissue
[34] = target: 5-hydroxytryptamine receptor 1E (Homo sapiens) (UniProt P28566); settings: Compound concentration 10.0 uM
[35] = target: T4, Muscarinic acetylcholine receptor M4 (Homo sapiens) (UniProt P08173); settings: Compound concentration 10.0 uM
T4 sequence (whole entry): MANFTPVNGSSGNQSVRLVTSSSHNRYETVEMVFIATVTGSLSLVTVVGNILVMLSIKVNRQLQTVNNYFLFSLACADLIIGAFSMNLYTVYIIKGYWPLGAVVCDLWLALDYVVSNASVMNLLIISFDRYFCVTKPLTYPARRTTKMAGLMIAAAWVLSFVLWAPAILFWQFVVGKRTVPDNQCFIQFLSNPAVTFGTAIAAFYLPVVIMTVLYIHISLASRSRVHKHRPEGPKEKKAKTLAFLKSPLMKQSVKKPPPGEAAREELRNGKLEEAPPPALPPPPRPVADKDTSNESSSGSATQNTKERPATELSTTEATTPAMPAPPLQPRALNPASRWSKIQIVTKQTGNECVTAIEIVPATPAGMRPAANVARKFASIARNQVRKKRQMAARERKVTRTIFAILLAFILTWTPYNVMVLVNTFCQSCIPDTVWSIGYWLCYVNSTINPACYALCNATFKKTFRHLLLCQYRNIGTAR

Rattus norvegicus = organism: Rattus norvegicus; settings: Compound concentration 10.0 uM
[36] = target: Histamine H3 receptor (Homo sapiens) (UniProt Q9Y5N1); settings: Compound concentration 10.0 uM
[37] = target: D(1A) dopamine receptor (Homo sapiens) (UniProt P21728); settings: Compound concentration 10.0 uM
[38] = target: Alpha-2A adrenergic receptor (Homo sapiens) (UniProt P08913); settings: Compound concentration 10.0 uM
[39] = target: Histamine H1 receptor (Homo sapiens) (UniProt P35367); settings: Compound concentration 10.0 uM
[40] = target: Muscarinic acetylcholine receptor M3 (Homo sapiens) (UniProt P20309); settings: Compound concentration 10.0 uM
[41] = target: Alpha-1A adrenergic receptor (Homo sapiens) (UniProt P35348); settings: Compound concentration 10.0 uM
[42] = target: Muscarinic acetylcholine receptor M5 (Homo sapiens) (UniProt P08912); settings: Compound concentration 10.0 uM
[43] = target: Muscarinic acetylcholine receptor M2 (Homo sapiens) (UniProt P08172); settings: Compound concentration 10.0 uM
[44] = target: Sodium-dependent serotonin transporter (Homo sapiens) (UniProt P31645); settings: Compound concentration 10.0 uM
[45] = target: Sodium-dependent noradrenaline transporter (Homo sapiens) (UniProt P23975); settings: Compound concentration 10.0 uM
[46] = target: 5-hydroxytryptamine receptor 5A (Homo sapiens) (UniProt P47898); settings: Compound concentration 10.0 uM
D(4) dopamine receptor = D(4) dopamine receptor (Homo sapiens, UniProt P21917); test: GPCRScan assay: inhibition of D4; design: radioligand conc. used [nm] 0.6 – 1.7, parental cells Stable HEK
[47] = target: Alpha-1B adrenergic receptor (Homo sapiens, UniProt P35368); test: GPCRScan assay: inhibition of Alpha1B; design: radioligand conc. used [nm] 0.3 – 1.0, parental cells stable HEK
[48] = target: Alpha-1B adrenergic receptor (Homo sapiens) (UniProt P35368); settings: Compound concentration 10.0 uM
[49] = target: Sigma non-opioid intracellular receptor 1 (Homo sapiens) (UniProt Q99720); settings: Compound concentration 10.0 uM
[50] = target: Muscarinic acetylcholine receptor M1 (Homo sapiens) (UniProt P11229); settings: Compound concentration 10.0 uM

T1 sequence (Q01959 whole entry): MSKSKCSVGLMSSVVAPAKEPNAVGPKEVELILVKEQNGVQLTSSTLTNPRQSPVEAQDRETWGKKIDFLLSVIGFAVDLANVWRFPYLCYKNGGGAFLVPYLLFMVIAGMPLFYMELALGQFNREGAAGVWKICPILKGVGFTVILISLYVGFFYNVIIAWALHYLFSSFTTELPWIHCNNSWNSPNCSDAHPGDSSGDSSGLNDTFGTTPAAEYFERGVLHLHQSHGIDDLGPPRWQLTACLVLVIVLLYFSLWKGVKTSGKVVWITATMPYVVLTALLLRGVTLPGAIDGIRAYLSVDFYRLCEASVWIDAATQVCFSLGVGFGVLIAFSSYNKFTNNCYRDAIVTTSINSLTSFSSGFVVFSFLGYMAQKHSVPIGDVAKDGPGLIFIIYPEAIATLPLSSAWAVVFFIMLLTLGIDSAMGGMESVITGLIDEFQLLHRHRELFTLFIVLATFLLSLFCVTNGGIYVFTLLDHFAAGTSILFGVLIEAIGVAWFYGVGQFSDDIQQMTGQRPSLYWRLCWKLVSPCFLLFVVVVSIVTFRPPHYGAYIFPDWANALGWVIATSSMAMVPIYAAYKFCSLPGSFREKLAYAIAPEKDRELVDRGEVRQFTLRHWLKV
T2 sequence (P35462 whole entry): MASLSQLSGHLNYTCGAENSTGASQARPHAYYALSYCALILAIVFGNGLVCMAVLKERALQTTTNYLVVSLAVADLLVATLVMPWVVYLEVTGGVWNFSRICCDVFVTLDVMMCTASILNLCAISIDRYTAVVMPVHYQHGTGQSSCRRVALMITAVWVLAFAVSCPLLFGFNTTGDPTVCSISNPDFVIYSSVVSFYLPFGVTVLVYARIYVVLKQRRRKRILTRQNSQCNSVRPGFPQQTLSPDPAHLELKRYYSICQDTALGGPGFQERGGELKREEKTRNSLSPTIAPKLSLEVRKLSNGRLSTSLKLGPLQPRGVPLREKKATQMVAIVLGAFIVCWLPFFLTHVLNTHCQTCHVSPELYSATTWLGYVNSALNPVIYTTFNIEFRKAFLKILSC
T3 sequence (P41145 whole entry): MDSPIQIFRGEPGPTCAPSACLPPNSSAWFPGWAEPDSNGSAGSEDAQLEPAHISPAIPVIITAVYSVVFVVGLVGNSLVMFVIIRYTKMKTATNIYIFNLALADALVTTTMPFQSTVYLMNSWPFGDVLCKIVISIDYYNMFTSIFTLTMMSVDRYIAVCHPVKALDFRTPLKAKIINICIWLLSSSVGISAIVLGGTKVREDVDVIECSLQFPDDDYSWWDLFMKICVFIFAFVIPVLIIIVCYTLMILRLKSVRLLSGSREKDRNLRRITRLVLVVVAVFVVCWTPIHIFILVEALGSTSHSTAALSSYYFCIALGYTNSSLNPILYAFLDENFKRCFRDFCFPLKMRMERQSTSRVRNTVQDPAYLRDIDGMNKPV
Sequence of Beta-1 adrenergic receptor (Homo sapiens) (P08588 whole entry, looked up): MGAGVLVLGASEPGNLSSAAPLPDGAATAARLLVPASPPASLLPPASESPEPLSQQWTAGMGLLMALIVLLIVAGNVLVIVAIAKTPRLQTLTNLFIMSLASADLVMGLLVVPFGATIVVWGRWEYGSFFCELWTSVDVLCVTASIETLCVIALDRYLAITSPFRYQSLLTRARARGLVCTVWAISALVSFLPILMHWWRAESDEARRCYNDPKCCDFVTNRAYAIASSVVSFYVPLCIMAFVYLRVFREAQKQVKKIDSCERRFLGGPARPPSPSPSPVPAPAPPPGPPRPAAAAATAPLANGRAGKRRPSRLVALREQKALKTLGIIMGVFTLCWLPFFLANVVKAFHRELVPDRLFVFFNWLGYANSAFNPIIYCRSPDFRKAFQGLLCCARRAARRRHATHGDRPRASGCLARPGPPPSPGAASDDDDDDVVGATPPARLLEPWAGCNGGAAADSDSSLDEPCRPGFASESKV
Sequence of 5-hydroxytryptamine receptor 1A (Homo sapiens) (P08908 whole entry): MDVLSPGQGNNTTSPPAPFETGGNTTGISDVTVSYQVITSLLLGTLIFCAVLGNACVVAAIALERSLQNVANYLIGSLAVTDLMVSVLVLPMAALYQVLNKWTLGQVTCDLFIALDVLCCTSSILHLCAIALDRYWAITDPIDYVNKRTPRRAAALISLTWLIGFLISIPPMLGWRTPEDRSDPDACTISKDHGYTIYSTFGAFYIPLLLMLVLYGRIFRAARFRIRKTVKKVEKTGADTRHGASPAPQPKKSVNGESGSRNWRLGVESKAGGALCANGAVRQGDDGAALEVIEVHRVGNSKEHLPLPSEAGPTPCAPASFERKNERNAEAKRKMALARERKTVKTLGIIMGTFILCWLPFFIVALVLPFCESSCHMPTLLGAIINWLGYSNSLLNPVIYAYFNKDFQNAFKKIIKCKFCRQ
Sequence of 5-hydroxytryptamine receptor 6 (Homo sapiens) (P50406 whole entry): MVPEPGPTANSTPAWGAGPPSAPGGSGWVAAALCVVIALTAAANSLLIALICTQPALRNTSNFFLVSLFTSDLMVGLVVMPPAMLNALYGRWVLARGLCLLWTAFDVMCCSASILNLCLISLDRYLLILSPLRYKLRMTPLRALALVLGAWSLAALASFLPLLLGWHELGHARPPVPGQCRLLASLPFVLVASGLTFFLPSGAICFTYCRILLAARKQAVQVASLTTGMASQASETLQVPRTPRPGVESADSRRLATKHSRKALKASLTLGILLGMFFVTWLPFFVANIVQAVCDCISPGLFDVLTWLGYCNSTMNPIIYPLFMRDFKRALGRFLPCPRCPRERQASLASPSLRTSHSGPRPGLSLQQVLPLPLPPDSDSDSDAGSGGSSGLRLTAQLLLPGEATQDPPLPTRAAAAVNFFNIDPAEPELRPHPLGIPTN
Sequence of 5-hydroxytryptamine receptor 2C (Homo sapiens) (P28335 whole entry): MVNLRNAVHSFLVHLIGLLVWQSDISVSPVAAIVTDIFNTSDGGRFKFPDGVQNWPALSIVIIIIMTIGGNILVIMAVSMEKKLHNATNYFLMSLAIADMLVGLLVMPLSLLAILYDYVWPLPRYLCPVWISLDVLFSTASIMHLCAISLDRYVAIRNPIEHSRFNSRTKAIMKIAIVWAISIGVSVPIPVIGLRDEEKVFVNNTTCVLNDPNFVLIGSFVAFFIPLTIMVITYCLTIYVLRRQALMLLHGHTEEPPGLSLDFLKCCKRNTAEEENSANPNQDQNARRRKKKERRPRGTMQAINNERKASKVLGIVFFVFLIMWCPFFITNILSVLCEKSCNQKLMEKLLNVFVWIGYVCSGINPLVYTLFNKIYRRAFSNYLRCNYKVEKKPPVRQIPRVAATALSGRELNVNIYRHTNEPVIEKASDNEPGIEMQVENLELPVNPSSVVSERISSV
Sequence of 5-hydroxytryptamine receptor 5A (Homo sapiens) (P47898 whole entry): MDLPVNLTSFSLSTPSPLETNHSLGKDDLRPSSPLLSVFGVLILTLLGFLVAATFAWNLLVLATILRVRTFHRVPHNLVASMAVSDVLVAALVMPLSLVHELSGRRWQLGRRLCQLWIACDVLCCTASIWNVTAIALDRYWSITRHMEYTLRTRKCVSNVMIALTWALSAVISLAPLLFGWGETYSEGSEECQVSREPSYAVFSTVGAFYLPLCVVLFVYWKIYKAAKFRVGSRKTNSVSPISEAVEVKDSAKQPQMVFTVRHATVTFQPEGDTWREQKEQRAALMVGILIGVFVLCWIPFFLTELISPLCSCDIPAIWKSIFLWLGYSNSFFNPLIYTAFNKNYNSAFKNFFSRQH
Sequence of Sodium-dependent noradrenaline transporter (Homo sapiens) (P23975 whole entry): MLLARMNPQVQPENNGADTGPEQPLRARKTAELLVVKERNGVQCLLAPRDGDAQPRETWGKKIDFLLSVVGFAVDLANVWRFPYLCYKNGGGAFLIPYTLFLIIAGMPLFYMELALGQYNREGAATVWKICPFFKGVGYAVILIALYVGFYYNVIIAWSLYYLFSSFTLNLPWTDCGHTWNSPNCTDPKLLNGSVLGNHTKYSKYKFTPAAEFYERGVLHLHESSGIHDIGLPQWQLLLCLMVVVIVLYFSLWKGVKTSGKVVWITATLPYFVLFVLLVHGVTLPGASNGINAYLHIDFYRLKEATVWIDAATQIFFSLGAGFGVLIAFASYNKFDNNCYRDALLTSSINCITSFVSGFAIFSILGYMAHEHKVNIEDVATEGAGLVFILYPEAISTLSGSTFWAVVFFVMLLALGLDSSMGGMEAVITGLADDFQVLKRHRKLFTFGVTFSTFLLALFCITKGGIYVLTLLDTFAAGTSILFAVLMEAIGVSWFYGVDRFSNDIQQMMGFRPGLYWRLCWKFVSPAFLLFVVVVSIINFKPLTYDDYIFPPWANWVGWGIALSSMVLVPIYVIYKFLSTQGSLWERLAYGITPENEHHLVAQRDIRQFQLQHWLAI
Sequence of Muscarinic acetylcholine receptor M2 (Homo sapiens) (P08172 whole entry): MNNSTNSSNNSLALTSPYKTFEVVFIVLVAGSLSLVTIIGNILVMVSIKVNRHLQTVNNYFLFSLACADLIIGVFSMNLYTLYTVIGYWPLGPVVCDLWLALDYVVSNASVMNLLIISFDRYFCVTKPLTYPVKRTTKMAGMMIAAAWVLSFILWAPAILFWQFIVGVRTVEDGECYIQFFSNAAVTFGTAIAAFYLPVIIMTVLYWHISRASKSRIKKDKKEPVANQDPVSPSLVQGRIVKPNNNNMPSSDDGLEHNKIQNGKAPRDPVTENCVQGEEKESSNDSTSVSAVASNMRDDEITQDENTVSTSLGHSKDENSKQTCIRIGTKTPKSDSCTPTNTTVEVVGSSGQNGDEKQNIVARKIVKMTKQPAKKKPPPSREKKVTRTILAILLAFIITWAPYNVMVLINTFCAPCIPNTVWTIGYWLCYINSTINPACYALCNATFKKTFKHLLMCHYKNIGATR
Sequence of Sigma intracellular receptor 2 (Q5BJF2 whole entry): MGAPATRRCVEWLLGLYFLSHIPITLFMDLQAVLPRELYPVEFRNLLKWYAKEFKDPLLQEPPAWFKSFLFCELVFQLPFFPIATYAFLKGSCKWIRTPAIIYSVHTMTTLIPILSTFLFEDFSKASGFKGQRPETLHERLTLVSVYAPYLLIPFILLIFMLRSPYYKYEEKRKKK

inhibition [1]: 16.5%
Ki ([2]; read-out: Ki): 6.55 µM
Ki ([2]; read-out: pKi (converted)): 6.61 µM
IC50 [3]: 2.1 µM (not active)
inhibition [4]: 25.4%
inhibition [5]: 4.27%
inhibition [6]: -1.48%
inhibition [7]: -8.97%
inhibition [8]: -7.96%
inhibition [9]: 25.4%
inhibition [10]: 25.9%
inhibition [11]: 39.3%
IC50 (Spermine oxidase): > 31 µM (not active)
inhibition [12]: 32.2%
inhibition [13]: 48.5%
inhibition [14]: 10.8%
inhibition [15]: 27.9%
inhibition [16]: 10.8%
inhibition [17]: 79.9%
inhibition [18]: 7.86%
inhibition [19]: 49.3%
Ki [20]: 1.31 µM
Ki (D(3) dopamine receptor [21]): 3.6 µM
inhibition [22]: 16.2%
inhibition [23]: 17.8%
inhibition [24]: 0.12%
inhibition [25]: 90.7%
Ki [26]: 0.198 µM
inhibition [27]: -5.81%
inhibition (D(3) dopamine receptor [28]): 90%
inhibition [29]: 17.5%
inhibition [30]: 15%
inhibition [31]: 38.4%
inhibition [32]: 89.3%
Ki [33]: 0.306 µM
pKi [33]: 6.51
inhibition [34]: 15.1%
inhibition [35]: 51.6%
inhibition (Rattus norvegicus): 96.6%
inhibition [36]: 6.04%
inhibition [37]: 22.7%
inhibition [38]: 28.1%
inhibition [39]: 14.9%
inhibition [40]: 33.5%
inhibition [41]: -7.41%
inhibition [42]: 30.3%
inhibition [43]: 46.1%
inhibition [44]: 12.9%
inhibition [45]: 49.4%
inhibition [46]: 6.76%
Ki (D(4) dopamine receptor): 3.39 µM
Ki [47]: 9.78 µM
inhibition [48]: 75.3%
inhibition [49]: 21.2%
inhibition [50]: 18.5%
Compound: CC(=O)Nc1ccc(-c2cc(-c3ccccc3)nc3cc(C(=O)NCCCn4ccnc4)nn23)cc1
